Measurements reported in patent US4439603A, “Anthracycline derivatives of β-rhodomycinone glycosides” (Sanraku-Ocean Co., Ltd., priority 1981, dated 1984).
In brackets after ≈: the same amount, converted by molar mass.

Experiments:
[1] = system: L1210 cells, DNA synthesis; assay: Inhibition of DNA synthesis (14C-thymidine incorporation) in L1210 cells; format: cell-based, mouse; conditions: RPMI 1640 with 10% calf serum, pulse-labeling 60 minutes at 37° C.; for IC50: Mus musculus, L1210, 1 h, read-out: 50% Inhibitory concentration, 14C-Thymidine (Inhibition of DNA synthesis)
Experimental: (§1) Independently of the above-mentioned experiment, the compounds of the present invention were added to an about 5×10^5 cells/ml L1210 cell suspension in RPMI 1640 medium containing 10% calf serum at a concentration of 0.02-2.5 μg/ml. After 15 minutes, ^14 -C-uridine (0.05 μCi/ml) or ^14 C-thymidine (0.05 μCi/ml) was added to the suspension and pulse-labeling was carried out at 37° C. for 60 minutes. The reaction was stopped by addition of a cold 10% trichloroacetic acid solution and an acid-insoluble fraction was precipitated. The precipitate was washed with a cold 5% trichloroacetic acid and the radioactivity was measured.

[2] = system: L1210 cells, RNA synthesis; assay: Inhibition of RNA synthesis (14C-uridine incorporation) in L1210 cells; format: cell-based, mouse; conditions: RPMI 1640 with 10% calf serum, pulse-labeling 60 minutes at 37° C.; for IC50: Mus musculus, L1210, 1 h, read-out: 50% Inhibitory concentration, 14C-Uridine (Inhibition of RNA synthesis)
Experimental: as §1

[3] = Acute toxicity in mice upon a single intraabdominal injection; format: in vivo; conditions: mouse, in vivo, ip
Solubility = format: physicochemical
Experimental: Solubilities of the compounds of the present invention, β-rhodomycinone-RDA, -RDRs, and -RD are similar. […] The color of the solutions, when they are dissolved, is red or reddish yellow, which is changed to violet in alkaline solution.

L1210 leukemia cells = assay: Growth inhibition of cultured mouse leukemia L1210 cells (48 hours, viable cell count); format: cell-based; conditions: for IC50: Mus musculus, L1210, 48 h, read-out: 50% Inhibitory concentration, Growth inhibition after 48 hours; for antitumor effect on L1210 leukemia cells: result in words
Experimental: The L1210 cells were cultivated at 37° C. overnight and transferred to RPMI (Roswell Park Memorial Institute) 1640 medium containing 20% calf serum at their exponential growth phase so as to give a cell concentration of 4×10^4 cells/ml. The compounds of the present invention were added to the medium at a concentration of 0.01-0.25 μg/ml. Incubation was performed in a CO2 -incubator at 37° C. for 2 days and then the number of viable cells was counted.
as §1

mice = assay: Acute toxicity in mice upon a single intraabdominal injection; format: in vivo
[4] = in acidic water, methanol, ethanol, n-butanol, acetone, ethyl acetate, chloroform, benzene, toluene, dimethylsulfoxide and methyl cellosolve
[5] = L1210 cells, RPMI 1640 with 20% calf serum, 37° C., 48 hours

Molecule `CCC1(O)CC(OC2CC(N(C)C)C(OC3CC(O)C(OC4CCC(O)C(C)O4)C(C)O3)C(C)O2)c2c(O)c3c(c(O)c2C1O)C(=O)c1cccc(O)c1C3=O` (stereo not drawn) [β-Rhodomycinone-RDA] has an IC50 [1] of 0.52 µg/mL (≈ 0.66 µM), an IC50 [2] of 0.095 µg/mL (≈ 0.121 µM) and an LD50 [3] of 40.6 mg/kg. For the same molecule, the Solubility (Solubility; [4]) was “soluble”, the Solubility (Solubility; in water, ether and n-hexane) was “slightly soluble” and the IC50 (L1210 leukemia cells; [5]) was 0.028 µg/mL (≈ 0.0355 µM). The “antitumor effect on L1210 leukemia cells” value (L1210 leukemia cells) was “have an antitumor effect on L1210 leukemia cells”.

With `CCC1(O)CC(OC2CC(N(C)C)C(OC3CC(O)C(OC4CCC(=O)C(C)O4)C(C)O3)C(C)O2)c2c(O)c3c(c(O)c2C1O)C(=O)c1cccc(O)c1C3=O` (stereo not drawn) [β-Rhodomycinone-RDC, reference compound] the IC50 [1] was 0.45 µg/mL (≈ 0.573 µM), the IC50 [2] was 0.07 µg/mL (≈ 0.0891 µM) and the IC50 (L1210 leukemia cells; [5]) was 0.01 µg/mL (≈ 0.0127 µM).

With `CCC1(O)CC(OC2CC(N(C)C)C(OC3CC(O)C(OC4CCC(O)C(C)O4)C(C)O3)C(C)O2)c2c(O)c3c(c(O)c2C1O)C(=O)c1cccc(O)c1C3=O` (stereo not drawn) [β-Rhodomycinone-RDRs] the “50% Inhibitory concentration, 14C-Thymidine (Inhibition of DNA synthesis)” value [1] was 0.54 µg/mL, the “50% Inhibitory concentration, 14C-Uridine (Inhibition of RNA synthesis)” value [2] was 0.085 µg/mL and the “acute toxicity (LD50 value)” value (mice) was 35.3 mg/kg. The Solubility (Solubility; [4]) was “soluble”, the Solubility (Solubility; in water, ether and n-hexane) was “slightly soluble” and the “50% Inhibitory concentration, Growth inhibition after 48 hours” value (L1210 leukemia cells; [5]) was 0.016 µg/mL. For the same molecule, the “antitumor effect on L1210 leukemia cells” value (L1210 leukemia cells) was “have an antitumor effect on L1210 leukemia cells”.

`CCC1(O)CC(OC2CC(N(C)C)C(OC3CC(O)C(O)C(C)O3)C(C)O2)c2c(O)c3c(c(O)c2C1O)C(=O)c1cccc(O)c1C3=O` (stereo not drawn) [β-Rhodomycinone-RD] gave an IC50 [1] of 0.36 µg/mL (≈ 0.534 µM), an IC50 [2] of 0.13 µg/mL (≈ 0.193 µM) and an LD50 [3] of 25.5 mg/kg. The Solubility (Solubility; [4]) was “soluble”, the Solubility (Solubility; in water, ether and n-hexane) was “slightly soluble” and the IC50 (L1210 leukemia cells; [5]) was 0.01 µg/mL (≈ 0.0148 µM). For the same molecule, the “antitumor effect on L1210 leukemia cells” value (L1210 leukemia cells) was “have an antitumor effect on L1210 leukemia cells”.
